“Also recorded” adds a separate entry of the source.
Test system: parenchymal arterioles (PA)
Assay: Pressurized arteriograph: vascular reactivity and structure of PA from female SHR
Assay type: in vivo, rat
Description: A separate group of SHR-F was used to determine if relaxin crosses the BBB by treating with relaxin (4 μg/hr) for 14 days and measuring relaxin concentration in cerebrospinal fluid (CSF) and serum (SHR-F-Rln-CSF, n=4). For the osmotic pump implant, animals were anesthetized with 3% isoflurane and minipumps implanted subcutaneously in the back of the neck. All animals received post-surgical analgesia (buprenorphine, 50 μg/kg, s.c.). Relaxin infusion was continuous for 14 days until animals were euthanized for isolated vessel experiments and tissue collection.
After collecting trunk blood, the brain was quickly removed and placed in cold physiological salt solution (PSS). PA between the M1 and M2 region of the MCA territory and the MCA from the same animals were carefully isolated from WKY-F, SHR-F, and SHR-F-Rln groups and mounted on glass cannulas. PA were identified as branches off the MCA that penetrated into the brain tissue, as previously described (han, S. L., and Cipolla, M. J. (2011) Relaxin causes selective outward remodeling of brain parenchymal arterioles via activation of peroxisome proliferator-activated receptor-gamma. FASEB J 25, 3229-3239). […] The proximal cannula was connected to an in-line pressure transducer and a servo-null pressure control system (Living Systems Instrumentation, Burlington, Vt., USA) that allowed intravascular pressure to be maintained at a set pressure or changed at a variable rate. The distal cannula was closed during the experiment to avoid flow-mediated responses. Temperature and pH were continuously measured and maintained at 37.0±0.5° C. and 7.40±0.05, respectively. Measurements of inner diameter (ID) and wall thickness (WT) were made via video microscopy (Living Systems Instrumentation, Burlington, Vt.).
PA and MCA were equilibrated for 1 hour, after which myogenic activity was determined by stepwise increases in pressure from 40 to 100 mmHg for PA or 50 to 175 mmHg for MCA. ID and WT were measured at each pressure once stable. Endothelium-dependent dilation was studied by adding NS309 (10^−8-10^−5 M), an activator of small- and intermediate-conductance calcium-activated potassium channels (SKCa, IKCa). NS309 was washed out of the bath and a single concentration of the nitric oxide synthase (NOS) inhibitor L-nitro-n-arginine (L-NNA, 10^−4 M) added to the bath. Constriction to NOS inhibition was used as an additional indicator of endothelial function. In the presence of L-NNA, sodium nitroprusside (SNP, 10^−8-10^−5 M) was added to the bath to assess endothelium-independent vasodilation. To obtain structural measurements, ID and WT were recorded at pressures between 5 to 200 mmHg for PA or 5 to 175 mmHg for MCA in zero-calcium PSS containing ethylene glycol tetra-acetic acid (EGTA) and outer diameter (OD) and distensibility calculated.
Percent tone was calculated as percent decrease in ID from the passive diameter at each intravascular pressure: [1−(IDactive/IDpassive)]×100. Percent reactivity for vasodilators was calculated as ((IDdose−IDstart)/(IDpassive−IDstart))×100. Percent constriction for vasoconstrictor was calculated as (1−(IDdose/IDstart))×100. OD was calculated from measured ID and WT: ID+2WT. Distensibility at a given pressure was calculated as (IDpassive−IDoriginal)/(IDoriginal)×100, where IDoriginal is defined as passive inner diameter determined at lowest pressure (5 mmHg). Data from qPCR study were analyzed using the −2^ΔΔCT method, as described previously (Livak, K. J., and Schmittgen, T. D. (2001) Analysis of relative gene expression data using real-time quantitative PCR and the 2(−Delta Delta C(T)) Method. Methods 25, 402-408). Data were removed when the Ct values of technical replicates differed by more than 0.5.

[1] = SHR-F-Rln vs untreated SHR-F, listed as Relaxin

relaxin
Reactivity of PA to NS309 (inner diameter increased by) (NS309 10^−6 M, vs 39±11% in SHR-F, p=0.058): 67±8%
PA inner diameter (SHR treated with human relaxin-2 4 μg/hr 14 days, untreated groups 58±3 and 49±3, p<0.05): 56±4 μm
PA distensibility (SHR, relaxin 4 μg/hr 14 days, vs 10±2% in SHR-F, p<0.05): 34±2%
Myogenic reactivity (active ID) of PA (SHR-F-Rln vs untreated SHR-F): did not affect
Myogenic tone (percent tone) of PA (SHR-F-Rln vs untreated SHR-F): did not affect
Passive ID of PA (SHR-F-Rln vs untreated SHR-F): increases the size; also recorded: increased
Passive OD of PA (SHR-F-Rln vs untreated SHR-F): increased
Passive distensibility of PA (SHR-F-Rln vs untreated SHR-F): increased
Myogenic tone (percent tone) of PA [1]: without affecting
Passive ID of PA [1]: increased
Passive distensibility of PA [1]: big effect; also recorded: increased
Reactivity of PA to the SKCa/IKCa activator NS309 [1]: tended to increase; also recorded: increased
Passive ID of PA (at 5 mmHg, vs 44±2 μm in SHR-F): 42±3 μm
Kind of structural remodeling of PA (hypertensive rats, relaxin alone): outward eutrophic remodeling

From US9393288B2, “Methods of treating diseases associated with PPARγ” (The University of Vermont and State Agricultural College, priority 2012, dated 2016)
